Common to all, as to format: biochemical
The target in one experiment is T1, Laforin (Homo sapiens, UniProt O95278).
T1 sequence (O95278 1-331): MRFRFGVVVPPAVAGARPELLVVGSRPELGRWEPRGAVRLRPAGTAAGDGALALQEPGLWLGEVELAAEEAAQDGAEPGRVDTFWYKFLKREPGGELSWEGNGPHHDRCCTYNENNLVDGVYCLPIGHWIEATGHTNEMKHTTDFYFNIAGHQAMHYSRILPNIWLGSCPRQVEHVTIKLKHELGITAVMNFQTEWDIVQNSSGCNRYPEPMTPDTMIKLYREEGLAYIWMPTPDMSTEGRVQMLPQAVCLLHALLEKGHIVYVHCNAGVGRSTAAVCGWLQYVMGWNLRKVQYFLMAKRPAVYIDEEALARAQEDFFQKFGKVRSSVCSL
Kind of experiment: PTP inhibition assay (pNPP). The conditions noted are these: pNPP at Km, pH 7.0, 25° C.

The target in a further experiment is T2, SHP2 (Homo sapiens, UniProt Q06124).
T2 sequence (Q06124 224-528): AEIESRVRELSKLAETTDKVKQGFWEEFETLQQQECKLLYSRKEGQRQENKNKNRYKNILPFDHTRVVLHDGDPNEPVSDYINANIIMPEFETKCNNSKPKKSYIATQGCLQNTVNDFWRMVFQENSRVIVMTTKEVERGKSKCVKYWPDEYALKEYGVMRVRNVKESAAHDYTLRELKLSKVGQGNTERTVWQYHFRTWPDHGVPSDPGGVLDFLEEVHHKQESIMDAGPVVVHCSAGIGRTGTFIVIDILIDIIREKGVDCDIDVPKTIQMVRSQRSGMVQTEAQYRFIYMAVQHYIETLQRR
Kind of experiment: SHP2 phosphatase inhibition assay (pNPP). As to conditions: pNPP at Km, pH 7.0, 25° C.; read-out: IC50 SHP2.

The next experiment concerns the target T3, Meg2 (Homo sapiens, UniProt P43378).
T3 sequence (P43378 1-593): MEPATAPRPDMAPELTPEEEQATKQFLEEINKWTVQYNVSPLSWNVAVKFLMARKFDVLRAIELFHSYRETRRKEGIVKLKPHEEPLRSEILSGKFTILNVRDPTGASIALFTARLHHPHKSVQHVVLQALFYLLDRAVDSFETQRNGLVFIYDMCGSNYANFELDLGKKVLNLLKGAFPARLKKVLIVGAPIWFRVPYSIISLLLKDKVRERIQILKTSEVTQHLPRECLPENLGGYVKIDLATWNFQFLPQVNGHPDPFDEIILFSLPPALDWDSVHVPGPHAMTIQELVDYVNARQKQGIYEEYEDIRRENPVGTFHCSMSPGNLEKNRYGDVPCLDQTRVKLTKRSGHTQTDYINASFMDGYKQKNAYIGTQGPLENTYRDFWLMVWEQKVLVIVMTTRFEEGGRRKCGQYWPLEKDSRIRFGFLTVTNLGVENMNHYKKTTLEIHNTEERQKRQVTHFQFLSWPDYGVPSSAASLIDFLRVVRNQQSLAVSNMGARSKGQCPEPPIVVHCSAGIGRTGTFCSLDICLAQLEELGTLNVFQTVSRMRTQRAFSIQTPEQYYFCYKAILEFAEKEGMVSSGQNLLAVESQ
The experiment is described as follows: PTP inhibition assay (pNPP).

The next experiment addresses PTPγ (Homo sapiens, UniProt P23470). Kind of experiment: PTP inhibition assay (pNPP).
In the next experiment the target is T4, PEST (Homo sapiens, UniProt Q05209).
T4 sequence (Q05209 1-780): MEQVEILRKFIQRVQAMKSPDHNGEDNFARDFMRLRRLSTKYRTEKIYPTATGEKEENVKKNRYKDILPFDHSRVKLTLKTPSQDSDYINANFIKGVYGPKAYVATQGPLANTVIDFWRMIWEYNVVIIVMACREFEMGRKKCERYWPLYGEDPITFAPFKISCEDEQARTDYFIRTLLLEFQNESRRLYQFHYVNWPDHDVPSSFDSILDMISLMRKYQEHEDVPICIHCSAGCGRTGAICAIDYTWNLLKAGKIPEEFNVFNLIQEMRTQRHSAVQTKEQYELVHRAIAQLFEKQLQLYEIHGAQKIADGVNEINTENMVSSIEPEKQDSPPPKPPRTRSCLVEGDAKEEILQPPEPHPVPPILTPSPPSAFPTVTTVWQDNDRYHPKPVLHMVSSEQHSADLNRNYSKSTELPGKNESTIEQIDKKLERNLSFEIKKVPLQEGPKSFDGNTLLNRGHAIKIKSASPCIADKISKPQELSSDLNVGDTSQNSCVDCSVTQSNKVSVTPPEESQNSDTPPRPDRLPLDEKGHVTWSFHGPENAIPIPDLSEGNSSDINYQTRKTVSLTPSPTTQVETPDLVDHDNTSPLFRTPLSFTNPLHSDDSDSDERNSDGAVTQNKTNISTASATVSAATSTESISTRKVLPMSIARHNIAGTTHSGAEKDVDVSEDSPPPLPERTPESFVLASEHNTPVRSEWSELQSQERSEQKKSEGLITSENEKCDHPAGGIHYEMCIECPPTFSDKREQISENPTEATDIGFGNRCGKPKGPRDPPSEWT
Kind of experiment: PTP inhibition assay (pNPP).

Another experiment addresses T5, MKP3 (Homo sapiens, UniProt Q16828).
T5 sequence (Q16828 1-381): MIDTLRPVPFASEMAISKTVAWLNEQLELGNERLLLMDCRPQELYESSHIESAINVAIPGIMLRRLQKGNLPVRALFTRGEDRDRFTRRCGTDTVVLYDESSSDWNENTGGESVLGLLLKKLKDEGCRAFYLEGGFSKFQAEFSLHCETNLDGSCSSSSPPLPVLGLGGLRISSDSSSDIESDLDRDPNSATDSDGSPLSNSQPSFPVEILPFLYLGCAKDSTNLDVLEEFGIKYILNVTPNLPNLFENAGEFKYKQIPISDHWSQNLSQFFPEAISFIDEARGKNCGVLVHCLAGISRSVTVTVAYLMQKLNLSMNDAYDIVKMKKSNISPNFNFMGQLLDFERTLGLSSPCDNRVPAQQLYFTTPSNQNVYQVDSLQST
Kind of experiment: PTP inhibition assay (pNPP).

The target of another experiment is T6, Ssu72 (Homo sapiens, UniProt Q9NP77).
T6 sequence (Q9NP77 1-194): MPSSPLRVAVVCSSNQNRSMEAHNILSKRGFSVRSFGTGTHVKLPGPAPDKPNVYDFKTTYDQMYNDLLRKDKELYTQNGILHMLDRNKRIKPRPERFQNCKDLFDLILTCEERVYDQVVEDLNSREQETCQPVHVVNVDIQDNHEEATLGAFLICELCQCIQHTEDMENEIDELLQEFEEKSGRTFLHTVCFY
The experiment is described as follows: PTP inhibition assay (pNPP).

Setting [1] is: pNPP at Km, pH 7.0, 25° C., read-out: IC50 PEST.
Where [2] appears, read: pNPP at Km, pH 7.0, 25° C., read-out: IC50 Ssu72.

SMILES strings stand for the structures. “And” between values parts separate entries of the source, which are not always exact repeats. Identical values can stand only once. Like-named read-outs stand apart in the source and are kept apart here. Some results are limits rather than exact numbers.

PTPγ, sequence (P23470 20-1445): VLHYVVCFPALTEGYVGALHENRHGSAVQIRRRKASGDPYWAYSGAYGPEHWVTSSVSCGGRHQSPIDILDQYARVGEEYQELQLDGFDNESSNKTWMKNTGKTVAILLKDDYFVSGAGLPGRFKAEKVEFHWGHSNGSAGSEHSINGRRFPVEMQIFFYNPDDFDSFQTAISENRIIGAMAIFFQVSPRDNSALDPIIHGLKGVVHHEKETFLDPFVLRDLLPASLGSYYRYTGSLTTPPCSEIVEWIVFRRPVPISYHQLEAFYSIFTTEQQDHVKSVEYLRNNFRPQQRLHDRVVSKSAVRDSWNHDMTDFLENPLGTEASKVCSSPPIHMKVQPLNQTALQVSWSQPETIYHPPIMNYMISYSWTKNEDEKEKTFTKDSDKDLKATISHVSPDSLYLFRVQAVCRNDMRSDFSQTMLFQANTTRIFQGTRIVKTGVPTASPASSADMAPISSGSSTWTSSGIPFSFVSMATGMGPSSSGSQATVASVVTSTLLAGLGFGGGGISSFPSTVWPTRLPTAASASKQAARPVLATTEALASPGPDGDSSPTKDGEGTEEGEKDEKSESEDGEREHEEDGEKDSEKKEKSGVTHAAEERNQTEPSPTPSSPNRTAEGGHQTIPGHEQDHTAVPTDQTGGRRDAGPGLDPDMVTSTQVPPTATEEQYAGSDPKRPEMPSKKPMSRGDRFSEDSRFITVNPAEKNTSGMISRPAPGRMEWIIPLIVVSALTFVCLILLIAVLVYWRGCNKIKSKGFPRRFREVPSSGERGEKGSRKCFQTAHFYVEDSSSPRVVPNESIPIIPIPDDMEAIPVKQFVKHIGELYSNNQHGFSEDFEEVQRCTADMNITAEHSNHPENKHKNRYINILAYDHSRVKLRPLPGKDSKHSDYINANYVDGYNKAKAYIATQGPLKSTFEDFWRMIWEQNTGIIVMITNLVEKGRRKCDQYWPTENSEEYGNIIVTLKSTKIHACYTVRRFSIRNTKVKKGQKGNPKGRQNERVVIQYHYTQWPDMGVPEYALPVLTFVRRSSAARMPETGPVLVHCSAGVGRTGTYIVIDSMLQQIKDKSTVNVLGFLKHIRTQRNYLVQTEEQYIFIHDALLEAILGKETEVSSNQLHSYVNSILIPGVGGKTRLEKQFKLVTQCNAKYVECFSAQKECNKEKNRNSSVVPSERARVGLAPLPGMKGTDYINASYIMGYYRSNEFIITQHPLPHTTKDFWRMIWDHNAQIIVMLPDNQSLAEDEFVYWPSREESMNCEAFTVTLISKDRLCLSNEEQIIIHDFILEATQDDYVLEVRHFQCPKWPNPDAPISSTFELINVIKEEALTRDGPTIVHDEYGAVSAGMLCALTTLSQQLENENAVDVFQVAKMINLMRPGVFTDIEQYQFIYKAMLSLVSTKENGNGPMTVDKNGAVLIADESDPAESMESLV

With `Cc1c(Br)cc(NC(=O)CS(=O)(=O)O)cc1Br`, the concentration for half-maximal inhibition (IC50) at Laforin (IC50 Laforin), on SHP2, against Meg2 and at PTPγ was > 100 µM throughout.

`O=C(CS(=O)(=O)O)Nc1ccc2nc(C(F)(F)F)[nH]c2c1`: the IC50 at Laforin (read-out: IC50 Laforin), at PEST (setting [1]), on SHP2, against Meg2, against PTPγ and at MKP3 was > 100 µM each time. In addition, the IC50 on Ssu72 (setting [2]) was > 100 µM.

Turning to `O=C(CS(=O)(=O)O)Nc1cnc2ccccc2c1`, the IC50 at Laforin (read-out: IC50 Laforin), on PEST (setting [1]), at SHP2, against Meg2, at PTPγ and on MKP3 was > 100 µM throughout. In addition, the IC50 at Ssu72 (setting [2]) is > 100 µM.

Take `O=C(NCCNC(=O)C(c1ccccc1)S(=O)(=O)O)c1cccc(C(=O)c2ccccc2)c1` (stereo not shown) [Compound L319-02-A60]: the half-maximal inhibitory concentration (IC50) is 9 µM on Laforin (read-out: IC50 Laforin), > 200 µM on PEST (setting [1]), > 200 µM at SHP2 and > 200 µM on Ssu72 (setting [2]).

Turning to `O=C(NCc1ccc(NC(=O)C(c2ccccc2)S(=O)(=O)O)cc1)c1ccccc1-c1ccc(C(F)(F)F)cc1` (stereo not shown) [Compound L319-05-A64], the IC50 worked out at 0.8 µM at Laforin (read-out: IC50 Laforin), 160 µM at PEST (setting [1]), 69 µM on SHP2 and 170 µM at Ssu72 (setting [2]).

As for `CCCCc1ccc(NC(=O)C(=O)Nc2ccccc2NC(=O)C(c2ccccc2)S(=O)(=O)O)cc1` (stereo not shown) [Compound L319-21-M06], the IC50 on Laforin (read-out: IC50 Laforin) was 0.14 µM; at PEST (setting [1]) it was > 50 µM; at SHP2, > 50 µM; on Ssu72 (setting [2]), > 50 µM.

On to `O=C(Nc1cccc(OCc2ccccc2)c1)C(=O)Nc1ccccc1NC(=O)C(c1ccccc1)S(=O)(=O)O` (stereo not shown) [Compound L319-21-M52], for which the IC50 at Laforin (read-out: IC50 Laforin) was 0.15 µM; at PEST (setting [1]), > 50 µM; on SHP2 it was > 50 µM; at Ssu72 (setting [2]), > 50 µM.

Turning to `Cc1c(Br)cc(NC(=O)C(c2ccccc2)S(=O)(=O)O)cc1Br` (stereo not shown) [Compound L319M34], the half-maximal inhibitory concentration (IC50) against PEST (IC50 PEST) is 42.3 µM; on PEST (pH 7, read-out: IC50 PEST), 72.3 µM; at SHP2 it was > 100 µM; on Ssu72 (IC50 Ssu72), > 100 µM.

Turning to `O=C(Nc1ccc(OCc2ccccc2)c(Cl)c1)C(c1ccccc1)S(=O)(=O)O` (stereo not shown) [Compound L319M50], the half-inhibitory concentration (IC50) was 2.06 µM at Laforin (read-out: IC50 Laforin), 69.9 µM at PEST (setting [1]), > 200 µM on SHP2 and 66.6 µM at Ssu72 (setting [2]).

As to `O=C(Nc1cccc(OCc2ccccc2)c1)C(c1ccccc1)S(=O)(=O)O` (stereo not shown) [Compound L319M52], the half-inhibitory concentration (IC50) on Laforin (read-out: IC50 Laforin) is 5.08 µM; at PEST (setting [1]), 77 µM and 77.4 µM; on SHP2, > 200 µM; against Meg2 it was > 200 µM; against PTPγ, > 200 µM; at MKP3 it was > 200 µM. For the same molecule, the IC50 at Ssu72 (setting [2]) is 97.6 µM.

In the case of `O=C(Nc1ccc2nc(C(F)(F)F)[nH]c2c1)C(c1ccccc1)S(=O)(=O)O` (stereo not shown) [Compound L319M54], the IC50 on Laforin (read-out: IC50 Laforin) is 4.25 µM; on PEST (setting [1]), > 200 µM; on SHP2 it was > 200 µM; at Meg2, > 200 µM; against PTPγ, > 200 µM; against MKP3, > 200 µM. In addition, the IC50 on Ssu72 (setting [2]) was > 200 µM.

Turning to `O=C(Nc1ccc(N2CCOCC2)cc1)C(c1ccccc1)S(=O)(=O)O` (stereo not shown) [Compound L319M68], the IC50 is 7.47 µM and 7.5 µM on Laforin (read-out: IC50 Laforin); > 200 µM at PEST (setting [1]); > 200 µM at SHP2; > 200 µM on Meg2; > 200 µM at PTPγ; > 200 µM against MKP3. The 50% inhibitory concentration (IC50) at Ssu72 (setting [2]) is > 200 µM.

`O=C(Nc1cnc2ccccc2c1)C(c1ccccc1)S(=O)(=O)O` (stereo not shown) [Compound L319M88]: the IC50 was 8.51 µM and 8.5 µM at Laforin (read-out: IC50 Laforin); > 200 µM on PEST (setting [1]); > 200 µM on SHP2; > 200 µM against Meg2; > 200 µM against PTPγ; > 200 µM at MKP3. Besides, the IC50 at Ssu72 (setting [2]) is > 200 µM.

For `O=C(Nc1ccc(-c2ccccc2)cc1)C(c1ccccc1)S(=O)(=O)O` (stereo not shown) [Compound L319N08], the IC50 on PEST (IC50 PEST) was 59.7 µM; at SHP2, > 100 µM; against Ssu72 (IC50 Ssu72) it was 72.9 µM.

Consider `O=C(Nc1nc2ccccc2s1)C(c1ccccc1)S(=O)(=O)O` (stereo not shown) [Compound L319N15], for which the half-maximal inhibitory concentration (IC50) is 2.1 µM at Laforin (read-out: IC50 Laforin); 43.5 µM on PEST (setting [1]); > 200 µM and > 100 µM and 160 µM at SHP2; > 200 µM at Meg2; > 200 µM at PTPγ; > 200 µM against MKP3. For the same molecule, the IC50 on Ssu72 (setting [2]) came out at 69 µM.

With `O=C(C(c1ccccc1)S(=O)(=O)O)N1CCC(Cc2ccccc2)CC1` (stereo not shown) [Compound L319N46], the IC50 on Laforin (read-out: IC50 Laforin), on PEST (setting [1]), at SHP2, against Meg2, against PTPγ and against MKP3 was > 200 µM each time. Besides, the IC50 at Ssu72 (setting [2]) is > 200 µM.

As to `O=C(C(c1ccccc1)S(=O)(=O)O)N1CCC(c2ccc(Cl)c(Cl)c2)CC1` (stereo not shown) [Compound L319N47], the IC50 at Laforin (read-out: IC50 Laforin) is 61 µM; at PEST (setting [1]), 42 µM; at SHP2, 76 µM; at Meg2, 147 µM; against PTPγ, 180 µM; on MKP3 it was > 200 µM. The concentration for half-maximal inhibition (IC50) on Ssu72 (setting [2]) is > 200 µM.

(Values after US10494332B2, “Protein tyrosine phosphatases or SHP2 inhibitors and uses thereof” (Indiana University Research and Technology Corporation, priority 2015, dated 2019).)
